Columns and labels:
[1] = First study: prevention of weight gain on high fat diet, ITPP in drinking water, 120 days; type: in vivo
Experimental: (§1) Experiments were conducted in analogue ways. First, 30 Balb/c-mice, 10 mice in each group, were assessed. Group 1 was a control group; mice were fed with normal mouse food and water for the whole duration of the experiment (120 days). […] Group III was fed with high fat diet, normal food and, instead of normal water, animals drank an ITPP solution for the duration of the experiment of (ITPP). The concentration was 10 g ITPP per liter water, containing no calcium salt, pH˜6.8-7.2).
(§2) The HFD was 235HF (U8955 version 9) casein 20%, corn starch 13%, sucrose 24.3%, cellulose 5%, malto dextrin 2.2%, lard 25%, soja oil 2.5%, mineral 205B SAFE 7%, and vitamine 200 SAFE 1%.
(§3) All food, water, and ITPP were given ad libitum. In 5 days intervals, body weights from each animal were recorded.

[2] = Third study: weight loss of overweight mice on normal food drinking ITPP solution, about 30 days; type: in vivo, Balb/c-mice; details: FIG. 3, normal mouse food, water with ITPP 10 g per liter
Experimental: In a third study the group with the 10 mice which had gained weight (˜30%) was divided in two groups (5 animals per cage). For 1 month, one group drank water while the other one drank an ITPP-solution (10 g/L) for about 30 days until the date of observation. The food was normal mouse food as before (pellets from SAFE, France). The body weights of the mice were measured 4 times until the final day.

[3] = Second study: prevention of weight gain on high fat diet, ITPP in drinking water, 70 days; type: in vivo; details: FIG. 2
Experimental: as §1, §2, §3
As before, in 5 days intervals body weights of the Balb/c-mice were measured.

O=P1(O)OC2C3OP(=O)(O)OP(=O)(O)OC3C3OP(=O)(O)OP(=O)(O)OC3C2OP(=O)(O)O1 (stereo not drawn) [ITPP, inositol-tripyrophosphate]
weight of Balb/c mice ([1]; FIG. 1, HFD + ITPP solution 10 g per liter water ad libitum, oral, 70 days after beginning, HFD/water mice ~40 g): ~30 g
tolerability of ITPP solution ([1]; FIG. 1, HFD + ITPP solution 10 g/L ad libitum, oral): well tolerated
first day with significant differences in weight, HFD/water versus HFD/ITPP ([1]; HFD + ITPP in water versus HFD + water): 10 days
weight increase of ITPP drinking group on HFD ([1]; HFD + ITPP in water, whole period of the experiment, compared with normal-food control group): did not increase their weight at all
mortality and general condition ([1]; orally offered ITPP solution with HFD, two periods (120 days and 70 days), fur, eyes, vitality normal): No animal died or was suffering
weight loss versus untreated group [2]: lost considerably more weight than the untreated group
tolerability of ITPP ([3]; HFD + ITPP 10 g/L in drinking water): tolerated very well
weight of Balb/c mice ([3]; HFD/ITPP consumers, 10 g/L in drinking water, 70 days, HFD/water mice ~40 g): < 30 g
weight gain ([3]; HFD/ITPP consumers, 70 days, HFD/water mice gained approximately 30%): did not gain significant weight

— patent US20160067267A1, “MYO-INOSITOL TRISPYROPHOSPHATE AS AN ANTI-OBESITY AGENT” (NormOxys, Inc., priority 2013, published 2016)
